The data set is described as follows: Solubility (Solubilités) in water and dimethyl sulfoxide. The data set is classed as physicochemical. Particulars: for solubility in dimethyl sulfoxide: diméthylsulfoxyde; for solubility: water, eau, read-out: Solubilités : Soluble dans l'eau.

Here are results for 15 molecules from patent EP0037781A1, “Phenyl alcoxy propanol amines, their preparation and their use as medicines” (PIERRE FABRE S.A., priority 1980, dated 1981).

Values after ≈ are worked out from the molar mass of the structure shown. Where a name gives a salt, the structure may show the parent alone.

For `Cc1cccc(COCC(O)CNC(C)C)c1` (stereo not shown) [Exemple 1, isopropylamino-3, m-tolyl méthoxy-1 propanol-2 fumarate], the “solubility in dimethyl sulfoxide” value is reported as 15% and the solubility turned out to be 100 mg/mL.
On the same counts, the results for `Cc1cccc(COCC(O)CNC(C)(C)C)c1` (stereo not shown) [Exemple 2, tertiobutvlamino-3 métatol lméthoxy-1 propanol-2 maléate] are 10% and 25 mg/mL (≈ 99.5 mM).
The matching figures for `COc1ccccc1COCC(O)CNC(C)C` (stereo not shown) [Exemple 3, isopropylamino-3 (orthométhoxy benzyloxy) 1 propanol-2 fumarate]: 15% and 100 mg/mL.
On the same counts, the results for `COc1ccccc1COCC(O)CNC(C)(C)C` (stereo not shown) [Exemple 4, tertiobutylamino-3 (orthométhoxy benzyloxy)-1 propanol-2 maléate] are 15% and 100 mg/mL (≈ 374 mM).
As for `COc1cccc(COCC(O)CNC(C)(C)C)c1` (stereo not shown) [Exemple 5, tertiobutylamino-3 (métaméthoxybenzyloxy)-1 propanol-2 maléate], the “solubility in dimethyl sulfoxide” value came out at 12% and the solubility was determined as 100 mg/mL (≈ 374 mM).
On the same counts, the results for `COc1ccc(COCC(O)CNC(C)(C)C)cc1` (stereo not shown) [Exemple 6, tertiobutylamino-3 (paraméthoxy benzyloxy)-1 propanol-2 maléate] are 20% and 100 mg/mL (≈ 374 mM).
The matching figures for `CC(C)(C)NCC(O)COCc1cccc(OCc2ccccc2)c1` (stereo not shown) [Exemple 7, tertiobutylamino-3 métabenzyloxy-benzyloxy-1 propanol-2 maléate]: 20% and 2 mg/mL (≈ 5.82 mM).
On to `CC(C)NCC(O)COCc1cccc2ccccc12` (stereo not drawn) [Exemple 8, isopropylamino-3 (alpha-naphtyl méthoxy)-1 propanol-2 fumarate], for which the “solubility in dimethyl sulfoxide” value is reported as 8% and the solubility stood at 14 mg/mL.
On the same counts, the results for `CC(C)(C)NCC(O)COCc1cccc2ccccc12` (stereo not drawn) [Exemple 9, tertiobutylamino-3 (alpha-naphtyl méthoxy)-1 propanol-2 fumarate] are 15% and 100 mg/mL.
The matching figures for `CC(C)NCC(O)COCCCc1ccccc1` (stereo not shown) [Exemple 10, isopropylamino-3(phényl-3 propoxy)-1 pro^panol-2 fumarate]: 12% and 100 mg/mL.
The matching figures for `CC(C)(C)NCC(O)COCCCc1ccccc1` (stereo not shown) [Exemple 11, tertiobutylamino-3 phényl-3 propoxy)-1 propanol-2 fumarate]: 15% and 100 mg/mL.
Turning to `CC(C)(C)NCC(O)COC/C=C/c1ccccc1` (stereo not shown) [Exemple 12, tertiobutylamino-3 (phényl-3 propène-2 yl-1) oxy-1 ^propanol-2 maléate], the “solubility in dimethyl sulfoxide” value was found to be 15% and the solubility is 10 mg/mL (≈ 38 mM).
`CC(C)(C)NCC(O)COC1Cc2ccccc2C1` (stereo not shown) [Exemple 14, tertiobutylamino-3 (indanyl-2 oxy)-1 propanol-2 maléate]: the “solubility in dimethyl sulfoxide” value is recorded as 10% and the solubility is 100 mg/mL (≈ 380 mM).
For `CC(C)NCC(O)COC1CCCc2ccccc21` (stereo not shown) [Exemple 15, isopropylamino-3 (tétrahydro 1,2,3,4 naphtyloxy-1)-1 propanol-2 fumarate], the solubility turned out to be 30 mg/mL.
Same read-out and setting: next, `CC(C)(C)NCC(O)COC1CCCc2ccccc21` (stereo not shown) [Exemple 16, tertiobutylamino-3 (tétrahydro 1,2,3,4 naphtoxy-1)-1 pro^panol-2 maléate]: 20 mg/mL (≈ 72.1 mM).
